Entries after “also recorded” stand apart in the source; their conditions may differ. Where two headings read alike, the source gives them in different places.
Assays:
[1] = biological target: recombinant DhelOBP5 (Dastarcus helophoroides, UniProt A0A1I9HZP1); assay: Fluorescence competitive binding assay (1-NPN probe); conditions: DhelOBP5, pH 7.4; for IC50: read-out: IC50, ligand concentration displacing 50% of the fluorescence intensity of the DhelOBPs/1-NPN complex
Method: (§1) Purified proteins were dissolved in 30 mM Tris-HCl buffer (pH 7.4 and 5.0), and emission fluorescence spectra were recorded on an RF-5301PC fluorescence spectrophotometer (Shimadzu, Kyoto, Japan) at room temperature in a right-angle configuration with a 1-cm light path quartz cuvette. To measure the affinity of the fluorescent probe 1-NPN with the target proteins, a […] solution of protein in 30 mM Tris-HCL (pH 7.4 and 5.0) was titrated with aliquots of 1 mM 1-NPN to final concentrations ranging from 0 to the approaching saturation. The probe 1-NPN was excited at 337 nm, and the emission spectra were recorded between 350 and 500 nm. The binding affinities of other ligands were measured using 1-NPN (2 μM) as the fluorescent probe with a stoichiometry of 1:1 (protein: probe), with the final concentration of each ligand ranging from 0 to 20 μM. All ligands, including 1-NPN were purchased from Sigma-Aldrich (St Louis, MO, USA) and TCI Shanghai (Shanghai, China) and dissolved in chromatogram class methanol (Aladdin, Shanghai, China).
(§2) The dissociation constants (Kd) of DhelOBPs with 1-NPN were calculated from Scatchard plots of the binding data using PRISM 8.0 software (GraphPad, La Jolla, CA, USA). Binding affinities (Ki) of DhelOBPs for each ligand were calculated based on the IC50 value (the initial fluorescence level of the competitor concentration reduced by half) using the equation: Ki=IC50/(1+1-NPN/K1-NPN) , where [1-NPN] is the free concentration of 1-NPN, and K1-NPN is the dissociation constant of the complex OBP/1-NPN. The analysis supposes that there is only one protein binding site, which is 100% active, and that the binding is reversible and at an equilibrium.

[2] = biological target: recombinant DhelOBP14 (Dastarcus helophoroides, UniProt A0A1I9HZQ7); assay: as above; conditions: DhelOBP14, pH 7.4; for IC50: read-out: IC50, ligand concentration displacing 50% of the fluorescence intensity of the DhelOBPs/1-NPN complex
Method: as §1, §2

[3] = biological target: recombinant DhelOBP18 (Dastarcus helophoroides, UniProt A0A1I9HZQ8); assay: as above; conditions: DhelOBP18, pH 7.4; for IC50: read-out: IC50, ligand concentration displacing 50% of the fluorescence intensity of the DhelOBPs/1-NPN complex
Method: as §1, §2

[4] = biological target: recombinant DhelOBP4 (Dastarcus helophoroides, UniProt A0A1I9HZP6); assay: as above; conditions: for IC50: read-out: IC50, ligand concentration displacing 50% of the fluorescence intensity of the DhelOBPs/1-NPN complex; for Ki: calculated from IC50, read-out: Ki, dissociation constant
Method: as §1, §2

[5] = biological target: recombinant DhelOBP20 (Dastarcus helophoroides, UniProt A0A1I9HZP8); assay: as above; conditions: DhelOBP20, pH 7.4; for IC50: read-out: IC50, ligand concentration displacing 50% of the fluorescence intensity of the DhelOBPs/1-NPN complex
Method: as §1, §2

[6] = test system: D. helophoroides adults injected with dsGFP or dsDhelOBP4; assay: RNAi-mediated Y-tube olfactometer bioassay; assay type: in vivo, Dastarcus helophoroides
Method: (§3) Y-tube olfactometer experiments were conducted to evaluate the behavioral response to HIPVs with the best binding affinities in darkness at approximately 25 ± 1 °C. The central tube was 15 cm long, and the two branching arms, each linked to one vial, were 12 cm long with a 75° angle between them. Twenty microliters of each chemical that had been diluted 1000 times by volume were added to a 1 × 1 cm filter paper in one of the vials, and 20 μL of liquid paraffin were dropped on the same size filter paper in the second vial as the blank control. An effective choice was recorded when adults crawled at least 5 cm into the arm within 1 min and stayed 30 s at least. After every five individuals, the two arms were exchanged to avoid position effects. After testing 10 individuals, the Y-tube olfactometer was cleaned with absolute ethanol and oven-dried at 150 °C for 2 h. Fifty adult D. helophoroides were analyzed in each treated group. The results were analyzed using the chi-square test. 50 male and 50 female adults of D. helophoroides were chosen on day 1–4 after eclosion. The two treated groups were: dsGFP-injected and dsRNA-injected. dsGFP (250 ng) or dsRNA (250 ng) was respectively injected into the thorax internode of the adults with a microinjector (World Precision Instruments Inc., Sarasota, FL, USA) under a microscope. The RNAi efficiency was detected using a qRT-PCR for seven consecutive days. Following behavioral response was evaluated using the Y-tube olfactometer.

[7] = test system: D. helophoroides adults; assay: Y-tube olfactometer bioassay; assay type: in vivo, Dastarcus helophoroides; conditions: female and male adults, 20 μL of chemical diluted 1000 times vs liquid paraffin, chi-square test
Method: as §3, with “test.” for “test. 50 male and 50 female adults of D. helophoroides were chosen on day 1–4 after eclosion. The two treated groups were: dsGFP-injected and dsRNA-injected. dsGFP (250 ng) or dsRNA (250 ng) was respectively injected into the thorax internode of the adults with a microinjector (World Precision Instruments Inc., Sarasota, FL, USA) under a microscope. The RNAi efficiency was detected using a qRT-PCR for seven consecutive days. Following behavioral response was evaluated using the Y-tube olfactometer.”

[8] = biological target: recombinant DhelOBP6 (Dastarcus helophoroides, UniProt A0A1I9HZP3); assay: Fluorescence competitive binding assay (1-NPN probe); conditions: DhelOBP6, pH 7.4; Scatchard plot; read-out: dissociation constant (Kd) bound to 1-NPN
Method: as §1, §2

[9] = female adults after injection of dsDhelOBP4
[10] = female and male adults after injection of dsGFP
[11] = male adults after injection of dsDhelOBP4
[12] = Scatchard plot, read-out: dissociation constant (Kd) bound to 1-NPN

recombinant DhelOBP5, sequence (A0A1I9HZP1 entry or part of it): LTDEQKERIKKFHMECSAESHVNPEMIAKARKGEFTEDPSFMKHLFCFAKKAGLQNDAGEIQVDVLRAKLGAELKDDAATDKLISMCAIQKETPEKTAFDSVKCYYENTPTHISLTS
recombinant DhelOBP18, sequence (A0A1I9HZQ8 entry or part of it): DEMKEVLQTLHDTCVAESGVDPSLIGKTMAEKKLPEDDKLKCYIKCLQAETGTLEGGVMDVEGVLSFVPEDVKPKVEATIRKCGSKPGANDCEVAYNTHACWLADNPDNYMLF
recombinant DhelOBP4, sequence (A0A1I9HZP6 entry or part of it): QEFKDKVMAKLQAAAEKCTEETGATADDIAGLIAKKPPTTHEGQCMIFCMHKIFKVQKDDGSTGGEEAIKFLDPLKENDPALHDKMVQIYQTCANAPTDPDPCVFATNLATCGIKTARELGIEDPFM
recombinant DhelOBP14, sequence (A0A1I9HZQ7 entry or part of it): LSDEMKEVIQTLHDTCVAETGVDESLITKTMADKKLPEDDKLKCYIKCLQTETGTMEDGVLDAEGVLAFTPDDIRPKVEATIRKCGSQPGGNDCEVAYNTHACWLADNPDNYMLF
recombinant DhelOBP20, sequence (A0A1I9HZP8 entry or part of it): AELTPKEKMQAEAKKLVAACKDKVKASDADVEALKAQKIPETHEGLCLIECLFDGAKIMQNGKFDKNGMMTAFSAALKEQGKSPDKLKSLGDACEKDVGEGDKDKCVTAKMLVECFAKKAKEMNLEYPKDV
recombinant DhelOBP6, sequence (A0A1I9HZP3 entry or part of it): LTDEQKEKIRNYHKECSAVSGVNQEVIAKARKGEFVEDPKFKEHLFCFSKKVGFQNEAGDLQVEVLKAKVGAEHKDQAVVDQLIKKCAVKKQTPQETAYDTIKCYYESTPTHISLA

Compound	IC50 [1]	IC50 [2]	IC50 [3]	IC50 ([4]; DhelOBP4, pH 5.0)	Ki ([4]; DhelOBP4, pH 7.4)	IC50 ([4]; DhelOBP4, pH 7.4)	IC50 [5]	Behavioral response of D. helophoroides post-RNAi treatment [6, 9]	Behavioral response of D. helophoroides post-RNAi treatment [6, 10]	Behavioral response of D. helophoroides post-RNAi treatment [6, 11]	Behavioral response of D. helophoroides [7]	Behavioral response of D. helophoroides ([7]; listed as γ-terpinene)	Behavioral response of D. helophoroides ([7]; listed as α-terpineol)	Kd [8]	Kd [1, 12]	Kd [2, 12]	Kd [3, 12]	Kd ([4]; DhelOBP4, pH 7.4, Scatchard plot, read-out: dissociation constant (Kd) bound to 1-NPN)	Kd [5, 12]
CC12CCC(CC1=O)C2(C)C (stereo not shown) [Camphor]	> 50 µM	> 50 µM	> 50 µM	> 50 µM	16.6 ± 2.2 µM	18 ± 2.4 µM	> 50 µM												
CC1=CCC(C(C)C)=CC1 [γ-Terpinene]	> 50 µM	> 50 µM	> 50 µM	> 50 µM	10.1 ± 0.3 µM	11 ± 0.3 µM	> 50 µM	significantly avoidant effects; also recorded: significant repellent response	identically attractive effects	no behavioral effects; also recorded: did not elicit a behavioral response	attractive effects	significantly attracted							
CC1=CCC(=C(C)C)CC1 [Terpinolene]	> 50 µM	> 50 µM	> 50 µM	> 50 µM	14.5 ± 1.7 µM	15.7 ± 1.8 µM	> 50 µM												
CC12CCC(C1)C(C)(C)C2=O (stereo not shown) [Fenchone]	> 50 µM	> 50 µM	> 50 µM	> 20 µM		> 20 µM	> 50 µM												
CC1=CC[C@@H](C(C)(C)O)CC1 [α-Terpineol]	> 50 µM	> 50 µM	> 50 µM	> 50 µM	9.6 ± 0.1 µM	10.4 ± 0.1 µM	> 50 µM				no behavioral effects		did not elicit a behavioral response						
c1ccc(Nc2cccc3ccccc23)cc1 [1-NPN, N-phenyl-1-naphthylamine, reference compound]														120 µM	41 µM	17.4 µM	1.23 µM	22.4 µM	5.13 µM
CC1=CCC(O)(C(C)C)CC1 (stereo not shown) [Terpinen-4-ol]	> 50 µM	> 50 µM	> 50 µM	> 50 µM		> 20 µM	> 50 µM												
CC1=CC(=O)[C@H]2C[C@@H]1C2(C)C [(-)-Verbenone]	> 50 µM	> 50 µM	> 50 µM	> 50 µM		> 20 µM	> 50 µM												
Cc1ccc(C(C)C)cc1 [p-Cymene]	> 50 µM	> 50 µM	> 50 µM	> 50 µM	12 ± 0.9 µM	13 ± 0.9 µM	> 50 µM	significantly avoidant effects; also recorded: significant repellent response	identically attractive effects	no behavioral effects; also recorded: did not elicit a behavioral response	significantly attracted; also recorded: attractive effects								
